Data reported in patent publication US8716180B2 (priority 2005, dated 2014).

System: deoxynivalenol (DON)
Set-up: species or system winter wheat
Conditions: in vivo

`N#Cc1c[nH]cc1-c1cccc2c1OC(F)(F)O2` [Lot B, fludioxonil] was tested, and the “Amount of DON (deoxynivalenol) in the ear of wheat” value was 0 ppb.
